Reference: patent US7626031B2, “Substituted 3-(diarylmethylene)indolin-2-ones and methods of their use” (Symphony Evolution, Inc., priority 2002, dated 2009)

Columns and labels:
[1] = target: EphA2 (Homo sapiens, UniProt P29317); assay: Kinase assay, EphA2 (33P-ATP incorporation or luciferase-coupled ATP consumption); type: biochemical
Method: (§1) Kinase assays were performed by measurement of incorporation of γ-^33P ATP into immobilized myelin basic protein (MBP). […] Plates were washed 3× with 100 μl TBS. […] Compound dilutions were performed in DMSO and added to assay wells to a final DMSO concentration of 1%. Each data point was measured in duplicate, and at least two duplicate assays were performed for each individual compound determination. Enzyme was added to final concentrations of 10 nM or 20 nM, for example. A mixture of unlabeled ATP and γ-^33P ATP was added to start the reaction (2×10^6 cpm of γ-^33P ATP per well (3000 Ci/mmole) and either 10 μM or 30 μM unlabeled ATP, typically. The reactions were carried out for 1 hour at room temperature with shaking. Plates were washed 7× with TBS, followed by the addition of 50 μl/well scintillation fluid (Wallac). Plates were read using a Wallac Trilux counter. This is only one format of such assays, various other formats are possible, as known to one of ordinary skill in the art.
(§2) Tyrosine kinase activity is determined by 1) measurement of kinase-dependent ATP consumption by in the presence of a generic substrate such as, polyglutamic acid, tyrosine, 4:1 (pEY), by luciferase/luciferin-mediated chemiluminescence or; 2) incorporation of radioactive phosphate derived from ^33P-ATP into a generic substrate which has been adsorbed onto the well surface of polystyrene microtiter plates. Phosphorylated substrate products are quantified by scintillation spectrometry.
(§3) Kinase activity and compound inhibition are investigated using one or more assay formats. The ATP concentrations for each assay are selected to be close to the Michaelis-Menten constant (KM) for each individual kinase. Dose-response experiments are performed at 10 different inhibitor concentrations in a 384-well plate format. […] Exemplary kinase assays are described below. KDR Assay

[2] = target: EGFR (Homo sapiens, UniProt P00533); assay: Kinase assay, EGFR (33P-ATP incorporation or luciferase-coupled ATP consumption); type: biochemical
Method: as §1, §2, §3

[3] = target: Fyn (Homo sapiens, UniProt P06241); assay: Kinase assay, Fyn; type: biochemical
Method: as §3

[4] = target: IRK (Homo sapiens, UniProt P06213); assay: Kinase assay, IRK; type: biochemical
Method: as §3

[5] = target: PDGFR alpha (Homo sapiens, UniProt P16234); assay: Kinase assay, PDGFR alpha (33P-ATP incorporation or luciferase-coupled ATP consumption); type: biochemical; details: read-out: PDGF-R-A IC50
Method: as §1, §2, §3

[6] = target: FGFR1 (Homo sapiens, UniProt P11362); assay: Kinase assay, FGFR1 (33P-ATP incorporation or luciferase-coupled ATP consumption); type: biochemical
Method: as §1, §2, §3

[7] = target: T1, KDR (baculovirus expressed human KDR kinase domain D807-V1356) (Homo sapiens, UniProt P35968); assay: biochemical
T1 construct: human KDR kinase domain D807-V1356; host or cells: baculovirus expression system
Method: as §3
KDR biochemical activity was assessed using a Luciferase-Coupled Chemiluminescent Kinase assay (LCCA) format. Kinase activity was measured as the percent ATP remaining following the kinase reaction. Remaining ATP was detected by luciferase-luciferin-coupled chemiluminescence. […] The mixture is incubated at ambient temperature for 4 hours after which 20 uL luciferase-luciferin mix is added and the chemiluminescent signal read using a Wallac Victor^2 reader.

Chain of IRK (P06213 28-1382): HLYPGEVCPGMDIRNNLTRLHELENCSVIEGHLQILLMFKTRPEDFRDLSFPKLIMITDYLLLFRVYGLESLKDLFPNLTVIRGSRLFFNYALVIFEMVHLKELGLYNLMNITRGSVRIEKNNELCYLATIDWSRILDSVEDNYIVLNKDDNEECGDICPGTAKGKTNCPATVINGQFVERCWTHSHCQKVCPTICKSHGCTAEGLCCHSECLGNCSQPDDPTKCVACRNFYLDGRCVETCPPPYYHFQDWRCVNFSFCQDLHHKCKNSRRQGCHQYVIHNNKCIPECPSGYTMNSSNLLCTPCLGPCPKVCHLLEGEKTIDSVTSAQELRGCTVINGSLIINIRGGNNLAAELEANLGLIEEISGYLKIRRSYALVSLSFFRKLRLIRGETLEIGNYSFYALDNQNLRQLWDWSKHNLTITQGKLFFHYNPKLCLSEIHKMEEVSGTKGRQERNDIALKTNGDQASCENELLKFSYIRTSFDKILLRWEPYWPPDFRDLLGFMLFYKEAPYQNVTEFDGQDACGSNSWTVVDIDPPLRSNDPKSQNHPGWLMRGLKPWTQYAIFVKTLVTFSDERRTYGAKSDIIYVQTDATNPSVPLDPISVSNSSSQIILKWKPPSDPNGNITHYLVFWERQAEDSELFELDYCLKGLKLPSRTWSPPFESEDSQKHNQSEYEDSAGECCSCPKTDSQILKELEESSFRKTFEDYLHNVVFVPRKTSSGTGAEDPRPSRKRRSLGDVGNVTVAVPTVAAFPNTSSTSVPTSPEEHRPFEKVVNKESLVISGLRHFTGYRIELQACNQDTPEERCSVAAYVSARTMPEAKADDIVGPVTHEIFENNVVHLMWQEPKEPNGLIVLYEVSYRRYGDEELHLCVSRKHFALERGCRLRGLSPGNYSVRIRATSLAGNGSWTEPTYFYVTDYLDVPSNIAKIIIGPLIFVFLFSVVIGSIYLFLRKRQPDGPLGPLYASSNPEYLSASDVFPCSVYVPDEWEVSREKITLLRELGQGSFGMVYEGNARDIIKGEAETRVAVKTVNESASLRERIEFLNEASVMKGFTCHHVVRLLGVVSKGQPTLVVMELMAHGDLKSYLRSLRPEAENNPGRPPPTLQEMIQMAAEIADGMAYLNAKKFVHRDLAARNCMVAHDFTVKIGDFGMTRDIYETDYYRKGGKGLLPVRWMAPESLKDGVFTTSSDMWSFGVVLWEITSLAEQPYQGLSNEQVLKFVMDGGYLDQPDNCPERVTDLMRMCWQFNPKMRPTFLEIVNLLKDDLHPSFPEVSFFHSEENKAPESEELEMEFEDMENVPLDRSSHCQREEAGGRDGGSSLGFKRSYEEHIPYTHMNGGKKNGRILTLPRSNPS
T1 sequence (P35968 807-1356): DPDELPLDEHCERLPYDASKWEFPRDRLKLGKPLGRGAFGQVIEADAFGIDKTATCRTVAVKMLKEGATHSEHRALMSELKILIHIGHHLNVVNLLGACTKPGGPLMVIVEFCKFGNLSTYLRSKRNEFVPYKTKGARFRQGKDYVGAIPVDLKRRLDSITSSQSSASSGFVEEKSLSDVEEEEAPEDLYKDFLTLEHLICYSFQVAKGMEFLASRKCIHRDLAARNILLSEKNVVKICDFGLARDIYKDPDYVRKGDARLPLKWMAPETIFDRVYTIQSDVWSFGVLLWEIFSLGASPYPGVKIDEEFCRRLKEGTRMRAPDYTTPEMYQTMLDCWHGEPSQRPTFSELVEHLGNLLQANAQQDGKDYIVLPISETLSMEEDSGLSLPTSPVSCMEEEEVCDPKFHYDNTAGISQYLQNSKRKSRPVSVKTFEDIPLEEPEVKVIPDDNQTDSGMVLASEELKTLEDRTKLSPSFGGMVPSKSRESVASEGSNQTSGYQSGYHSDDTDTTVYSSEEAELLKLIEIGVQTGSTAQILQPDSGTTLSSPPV
Chain of EphA2 (P29317 24-976, species assumed): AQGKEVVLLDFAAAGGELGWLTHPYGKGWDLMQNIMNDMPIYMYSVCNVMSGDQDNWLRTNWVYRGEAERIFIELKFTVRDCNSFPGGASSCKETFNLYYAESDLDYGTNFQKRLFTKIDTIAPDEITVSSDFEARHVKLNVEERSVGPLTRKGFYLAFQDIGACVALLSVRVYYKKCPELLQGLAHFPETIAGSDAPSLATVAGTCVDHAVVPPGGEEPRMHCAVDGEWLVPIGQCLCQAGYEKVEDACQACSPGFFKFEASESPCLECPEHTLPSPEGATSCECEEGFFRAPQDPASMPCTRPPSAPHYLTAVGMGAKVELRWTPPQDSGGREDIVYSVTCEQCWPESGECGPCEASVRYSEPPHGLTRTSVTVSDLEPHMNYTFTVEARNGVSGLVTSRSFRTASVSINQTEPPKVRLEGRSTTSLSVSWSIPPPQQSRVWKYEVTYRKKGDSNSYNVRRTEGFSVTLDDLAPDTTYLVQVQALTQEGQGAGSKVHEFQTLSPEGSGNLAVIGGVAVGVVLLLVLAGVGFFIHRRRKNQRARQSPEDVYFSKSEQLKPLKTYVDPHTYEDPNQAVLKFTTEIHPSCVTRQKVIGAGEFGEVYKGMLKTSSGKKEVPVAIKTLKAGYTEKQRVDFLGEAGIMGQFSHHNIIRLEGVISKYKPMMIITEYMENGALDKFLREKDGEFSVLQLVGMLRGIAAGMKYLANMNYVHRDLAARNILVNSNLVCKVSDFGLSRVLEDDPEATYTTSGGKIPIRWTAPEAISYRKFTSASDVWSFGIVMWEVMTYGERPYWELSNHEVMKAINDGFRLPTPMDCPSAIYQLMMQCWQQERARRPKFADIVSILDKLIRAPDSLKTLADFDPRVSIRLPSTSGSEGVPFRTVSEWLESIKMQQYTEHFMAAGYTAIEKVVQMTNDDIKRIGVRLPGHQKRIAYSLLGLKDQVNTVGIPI
Chain of EGFR (P00533 25-1210, species assumed): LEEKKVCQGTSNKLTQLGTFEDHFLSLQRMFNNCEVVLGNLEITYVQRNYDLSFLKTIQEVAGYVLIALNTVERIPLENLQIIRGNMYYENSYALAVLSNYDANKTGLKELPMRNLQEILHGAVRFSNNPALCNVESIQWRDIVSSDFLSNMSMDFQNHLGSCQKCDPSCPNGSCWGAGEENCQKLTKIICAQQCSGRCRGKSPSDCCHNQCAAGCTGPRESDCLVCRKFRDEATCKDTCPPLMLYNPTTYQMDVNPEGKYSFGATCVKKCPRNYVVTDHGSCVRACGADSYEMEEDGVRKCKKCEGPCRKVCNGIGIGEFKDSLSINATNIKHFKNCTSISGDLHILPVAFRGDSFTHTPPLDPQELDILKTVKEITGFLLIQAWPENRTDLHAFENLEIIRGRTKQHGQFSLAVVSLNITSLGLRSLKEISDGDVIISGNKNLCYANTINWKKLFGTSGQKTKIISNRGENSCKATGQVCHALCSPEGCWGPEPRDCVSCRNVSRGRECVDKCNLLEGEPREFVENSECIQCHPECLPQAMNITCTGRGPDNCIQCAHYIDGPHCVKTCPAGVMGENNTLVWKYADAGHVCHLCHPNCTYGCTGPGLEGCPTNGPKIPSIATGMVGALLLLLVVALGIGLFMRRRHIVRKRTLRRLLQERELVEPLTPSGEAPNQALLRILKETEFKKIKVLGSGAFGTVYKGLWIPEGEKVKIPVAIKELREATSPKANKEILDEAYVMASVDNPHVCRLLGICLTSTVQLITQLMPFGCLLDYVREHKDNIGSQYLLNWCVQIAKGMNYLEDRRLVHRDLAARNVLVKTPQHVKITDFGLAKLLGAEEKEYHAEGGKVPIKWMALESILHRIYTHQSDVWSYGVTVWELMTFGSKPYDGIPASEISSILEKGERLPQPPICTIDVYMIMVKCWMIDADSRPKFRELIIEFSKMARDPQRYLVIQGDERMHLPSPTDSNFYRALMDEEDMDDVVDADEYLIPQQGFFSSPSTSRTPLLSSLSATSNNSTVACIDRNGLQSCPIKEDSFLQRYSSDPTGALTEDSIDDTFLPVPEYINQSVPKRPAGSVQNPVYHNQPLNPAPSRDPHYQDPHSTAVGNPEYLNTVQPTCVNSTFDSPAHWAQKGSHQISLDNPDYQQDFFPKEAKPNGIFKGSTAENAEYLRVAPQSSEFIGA
Chain of Fyn (P06241 whole entry, species assumed): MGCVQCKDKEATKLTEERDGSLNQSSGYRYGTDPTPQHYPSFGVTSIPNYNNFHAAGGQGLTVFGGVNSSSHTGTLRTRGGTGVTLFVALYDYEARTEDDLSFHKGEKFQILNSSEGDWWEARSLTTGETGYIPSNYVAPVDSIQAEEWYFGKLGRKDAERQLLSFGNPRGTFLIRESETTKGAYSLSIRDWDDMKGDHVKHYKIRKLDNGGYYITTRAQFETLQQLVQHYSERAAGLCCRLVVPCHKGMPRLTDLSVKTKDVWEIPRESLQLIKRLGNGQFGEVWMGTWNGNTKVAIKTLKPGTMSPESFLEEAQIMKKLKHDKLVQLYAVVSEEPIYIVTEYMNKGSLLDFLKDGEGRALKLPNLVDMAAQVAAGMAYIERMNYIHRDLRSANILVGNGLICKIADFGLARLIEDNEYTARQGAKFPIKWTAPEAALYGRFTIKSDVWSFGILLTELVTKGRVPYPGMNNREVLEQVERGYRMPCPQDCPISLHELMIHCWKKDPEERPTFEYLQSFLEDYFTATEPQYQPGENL

SMILES	IC50 [1]	IC50 [2]	IC50 [3]	IC50 [4]	IC50 [5]	IC50 [6]	IC50 [7]
CCN1CCCC(Nc2ccc3c(c2)/C(=C(\c2ccccc2)c2nc4cc(OC)ccc4[nH]2)C(=O)N3)C1 (stereo not drawn) [Entry 2, (3Z)-5-[(1-ethylpiperidin-3-yl)amino]-3-[[5-(methyloxy)-1H-benzimidazol-2-yl](phenyl)methylidene]-1,3-dihydro-2H-indol-2-one]	500 to 5000 nM	500 to 5000 nM	500 to 5000 nM	–	–	–	–
CCN1CCC(Oc2ccc3c(c2)/C(=C(\c2ccccc2)c2nc4cc(OC)ccc4[nH]2)C(=O)N3)CC1 [Entry 14, (3Z)-5-[(1-ethytpiperidin-4-yl)oxy]-3-[[5-(methyloxy)-1H-benzimidazol-2-yl](phenyl)methylidene]-1,3-dihydro-2H-indol-2-one]	500 to 5000 nM	500 to 5000 nM	< 50 nM	500 to 5000 nM	–	–	–
CCN1CCC(Nc2ccc3c(c2)/C(=C(\c2ccccc2)c2nc4cc(Cl)ccc4[nH]2)C(=O)N3)CC1 [Entry 55, (3Z)-3-[(5-chloro-1H-benzimidazol-2-yl)(phenyl)methylidene]-5-[(1-ethylpiperidin-4-yl)amino]-1,3-dihydro-2H-indol-2-one]	500 to 5000 nM	–	< 50 nM	500 to 5000 nM	< 50 nM	50 to 500 nM	< 50 nM
CCN1CCC(Nc2ccc3c(c2)/C(=C(\c2cc(F)cc(F)c2)c2nc4cc(Cl)ccc4[nH]2)C(=O)N3)CC1 [Entry 56, (3Z)-3-[(5-chloro-1H-benzimidazol-2-yl) (3,5-dilfuorophenyl)methylidene]-5-[(1-ethylpiperidin-4-yl)amino]-1,3-dihydro-2H-indol-2-one]	500 to 5000 nM	–	< 50 nM	> 5000 nM	< 50 nM	50 to 500 nM	< 50 nM
CCN1CCC(Nc2ccc3c(c2)/C(=C(/c2cc(F)cc(F)c2)c2nc4cc(F)ccc4[nH]2)C(=O)N3)CC1 [Entry 61, (3E)-3-[(3,5-difluorophenyl)(5-fluoro-1H-benzimidazol-2-yl)methylidene]-5-[(1-ethylpiperidin-4-yl)amino]-1,3-dihydro-2H-indol-2-one]	> 5000 nM	> 5000 nM	< 50 nM	> 5000 nM	< 50 nM	50 to 500 nM	< 50 nM
CCN1CCC(Nc2ccc3c(c2)/C(=C(\c2cc(F)cc(F)c2)c2nc4cc(F)ccc4[nH]2)C(=O)N3)CC1 [Entry 62, (3Z)-3-[(3,5-difluorophenyl)(5-fluoro-1H-benzimidazol-2-yl)methylidene]-5-[(1-ethylpiperidin-4-yl)amino]-1,3-dihydro-2H-indol-2-one]	500 to 5000 nM	50 to 500 nM	< 50 nM	> 5000 nM	< 50 nM	< 50 nM	< 50 nM
CCN1CCC(Nc2ccc3c(c2)/C(=C(\c2ccc(C(F)(F)F)nc2)c2ncc[nH]2)C(=O)N3)CC1 [Entry 68]	500 to 5000 nM	> 5000 nM	50 to 500 nM	> 5000 nM	< 50 nM	50 to 500 nM	50 to 500 nM
CCN1CCC(Nc2ccc3c(c2)/C(=C(\c2cccc(F)c2)c2nc(-c4ccccc4)c[nH]2)C(=O)N3)CC1 [Entry 95, (3Z)-5-[(1-ethylpiperidin-4-yl)amino]-3-[(3-fluorophenyl)(4-phenyl-1H-imidazol-2-yl)methylidene]-1,3-dihydro-2H-indol-2-one]	500 to 5000 nM	50 to 500 nM	< 50 nM	500 to 5000 nM	–	< 50 nM	< 50 nM

The next lines start with the values.

IC50 [1]	IC50 [2]	IC50 [3]	IC50 [4]	IC50 [5]	IC50 [6]	IC50 [7]	SMILES
500 to 5000 nM	–	< 50 nM	500 to 5000 nM	< 50 nM	50 to 500 nM	< 50 nM	CCN1CCC(Nc2ccc3c(c2)/C(=C(\c2ccc(F)c(C)c2)c2nc4ccccc4[nH]2)C(=O)N3)CC1 [Entry 52, (3Z)-3-[1H-benzimidazol-2-yl(4-fluoro-3-methylphenyl)methylidene]-5-{(1-ethylpiperidin-4-yl)amino]-1,3-dihydro-2H-indol-2-one]
500 to 5000 nM	50 to 500 nM	< 50 nM	500 to 5000 nM	< 50 nM	< 50 nM	< 50 nM	CCCc1ccc(/C(=C2/C(=O)Nc3ccc(NC4CCN(CC)CC4)cc32)c2ncc[nH]2)cc1 [Entry 59, (3Z)-5-[(1-ethylpiperidin-4-yl)amino]-3-[1H-imidazol-2-yl(4-propylphenyl)methylidene]-1,3-dihydro-2H-indol-2-one]
50 to 500 nM	50 to 500 nM	< 50 nM	500 to 5000 nM	< 50 nM	< 50 nM	< 50 nM	COCCN1CCC(Nc2ccc3c(c2)/C(=C(\c2ccc(C)c(F)c2)c2ncc[nH]2)C(=O)N3)CC1 [Entry 63, (3Z)-3-[(3-fluoro-4-methylphenyl)(1H-imidazol-2-yl)methylidene]-5-({1-[2-(methyloxy)ethyl]piperidin-4-yl}amino)-1,3-dihydro-2H-indol-2-one]
50 to 500 nM	50 to 500 nM	< 50 nM	500 to 5000 nM	< 50 nM	< 50 nM	< 50 nM	COCCN1CCC(Nc2ccc3c(c2)/C(=C(\c2ccc(C)cc2)c2ncc[nH]2)C(=O)N3)CC1 [Entry 69]
50 to 500 nM	50 to 500 nM	< 50 nM	500 to 5000 nM	< 50 nM	< 50 nM	< 50 nM	COCCN1CCC(Nc2ccc3c(c2)/C(=C(\c2cccc(F)c2)c2nc(C)c[nH]2)C(=O)N3)CC1 [Entry 70, (3Z)-3-[(3-fluorophenyl)(4-methyl-1H-imidazol-2-yl)methylidene]-5-({1-[2-(methyloxy)ethyl]piperidin-4-yl}amino)-1,3-dihydro-2H-indol-2-one]
500 to 5000 nM	> 5000 nM	50 to 500 nM	> 5000 nM	< 50 nM	< 50 nM	< 50 nM	COCCN1CCC(Nc2ccc3c(c2)/C(=C(\c2ccc(C(F)(F)F)cc2)c2ncc[nH]2)C(=O)N3)CC1 [Entry 71]
> 5000 nM	> 5000 nM	> 5000 nM	500 to 5000 nM	–	50 to 500 nM	50 to 500 nM	CS(=O)(=O)N1CCC(Nc2ccc3c(c2)/C(=C(\c2cccc(F)c2)c2ncc[nH]2)C(=O)N3)CC1 [Entry 93, (3Z)-3-[(3-fluorophenyl)(1H-imidazol-2-yl)methylidene]-5-{[1-(methylsulfonyl)piperidin-4-yl]amino}-1,3-dihydro-2H-indol-2-one]
500 to 5000 nM	50 to 500 nM	< 50 nM	500 to 5000 nM	–	< 50 nM	< 50 nM	CCCc1ccc(/C(=C2/C(=O)Nc3ccc(NC4CCN(CCOC)CC4)cc32)c2ncc[nH]2)cc1 [Entry 94, (3Z)-3-[1H-imidazol-2-yl(4-propylphenyl)methylidene]-5-({1-[2-(methyloxy)ethyl]piperidin-4-yl}amino)-1,3-dihydro-2H-indol-2-one]
500 to 5000 nM	50 to 500 nM	< 50 nM	500 to 5000 nM	–	< 50 nM	< 50 nM	COCCN1CCC(Nc2ccc3c(c2)/C(=C(\c2cccc(F)c2)c2nc(-c4ccccc4)c[nH]2)C(=O)N3)CC1 [Entry 96, (3Z)-3-[(3-fluorophenyl)(4-phenyl-1H-imidazol-2-yl)methylidene]-5-({1-[2-(methyloxy)ethyl]piperidin-4-yl}amino)-1,3-dihydro-2H-indol-2-one]
500 to 5000 nM	> 5000 nM	50 to 500 nM	> 5000 nM	–	50 to 500 nM	50 to 500 nM	COCCN1CCC(Nc2ccc3c(c2)/C(=C(\c2ccc(C(F)(F)F)nc2)c2ncc[nH]2)C(=O)N3)CC1 [Entry 98]
> 5000 nM	> 5000 nM	> 5000 nM	> 5000 nM	–	50 to 500 nM	50 to 500 nM	CCN1CCC(Nc2ccc3c(c2)/C(=C(\c2cccc(F)c2)c2ncn[nH]2)C(=O)N3)CC1 [Entry 99, (3Z)-5-[(1-ethylpiperidin-4-yl)amino]-3-[(3-fluorophenyl)(1H-1,2,4-triazol-5-yl)methylidene]-1,3-dihydro-2H-indol-2-one]
